In this series the test system is CCRIS mutagenicity, Ames/micronucleus/aberration tests. Nature of the series: CCRIS mutagenicity studies.

Structures are written as SMILES. The source made the active and inactive calls. No rule for the calls is given here.

Turning to `CCCCCC[C@@H](O)C/C=C\CCCCCCCC(=O)O`, the mutagenic call is, setting by setting: (Test System: AMES SALMONELLA TYPHIMURIUM, Strain/Indicator: TA98, Metabolic Activation: HAMSTER, LIVER, S-9, AROCLOR 1254, Method: PREINCUBATION) “inactive; negative”; (Test System: AMES SALMONELLA TYPHIMURIUM, Strain/Indicator: TA98, Metabolic Activation: NONE, Method: PREINCUBATION) “inactive; negative”; (Test System: AMES SALMONELLA TYPHIMURIUM, Strain/Indicator: TA98, Metabolic Activation: RAT, LIVER, S-9, AROCLOR 1254, Method: PREINCUBATION) “inactive; negative”; (Test System: AMES SALMONELLA TYPHIMURIUM, Strain/Indicator: TA100, Metabolic Activation: HAMSTER, LIVER, S-9, AROCLOR 1254, Method: PREINCUBATION) “inactive; negative”; (Test System: AMES SALMONELLA TYPHIMURIUM, Strain/Indicator: TA100, Metabolic Activation: NONE, Method: PREINCUBATION) “inactive; negative”; (Test System: AMES SALMONELLA TYPHIMURIUM, Strain/Indicator: TA100, Metabolic Activation: RAT, LIVER, S-9, AROCLOR 1254, Method: PREINCUBATION) “inactive; negative”. Besides, the mutagenic call is “inactive; negative” (Test System: AMES SALMONELLA TYPHIMURIUM, Strain/Indicator: TA1535, Metabolic Activation: HAMSTER, LIVER, S-9, AROCLOR 1254, Method: PREINCUBATION); “inactive; negative” (Test System: AMES SALMONELLA TYPHIMURIUM, Strain/Indicator: TA1535, Metabolic Activation: NONE, Method: PREINCUBATION); “inactive; negative” (Test System: AMES SALMONELLA TYPHIMURIUM, Strain/Indicator: TA1535, Metabolic Activation: RAT, LIVER, S-9, AROCLOR 1254, Method: PREINCUBATION); “inactive; negative” (Test System: AMES SALMONELLA TYPHIMURIUM, Strain/Indicator: TA1537, Metabolic Activation: HAMSTER, LIVER, S-9, AROCLOR 1254, Method: PREINCUBATION); “inactive; negative” (Test System: AMES SALMONELLA TYPHIMURIUM, Strain/Indicator: TA1537, Metabolic Activation: NONE, Method: PREINCUBATION); “inactive; negative” (Test System: AMES SALMONELLA TYPHIMURIUM, Strain/Indicator: TA1537, Metabolic Activation: RAT, LIVER, S-9, AROCLOR 1254, Method: PREINCUBATION).
In the case of `CC[C@H](C)[C@H]1O[C@]2(C=C[C@@H]1C)C[C@@H]1C[C@@H](C/C=C(\C)[C@@H](O[C@H]3C[C@H](OC)[C@@H](O[C@H]4C[C@H](OC)[C@@H](NC)[C@H](C)O4)[C@H](C)O3)[C@@H](C)/C=C/C=C3\CO[C@@H]4[C@H](O)C(C)=C[C@@H](C(=O)O1)[C@]34O)O2`, the mutagenic call runs as follows: (End Point: Ames Salmonella typhimurium, Test System: TA97a, Metabolic Activation: None) “inactive; negative”; (End Point: Ames Salmonella typhimurium, Test System: TA97a, Metabolic Activation: S-9) “inactive; negative”; (End Point: Ames Salmonella typhimurium, Test System: TA98, Metabolic Activation: None) “inactive; negative”; (End Point: Ames Salmonella typhimurium, Test System: TA98, Metabolic Activation: S-9) “inactive; negative”; (End Point: Ames Salmonella typhimurium, Test System: TA100, Metabolic Activation: None) “inactive; negative”; (End Point: Ames Salmonella typhimurium, Test System: TA100, Metabolic Activation: S-9) “inactive; negative”. Moreover, the mutagenic call is “inactive; negative” (End Point: Ames Salmonella typhimurium, Test System: TA1535, Metabolic Activation: None); “inactive; negative” (End Point: Ames Salmonella typhimurium, Test System: TA1535, Metabolic Activation: S-9); “inactive; negative” (End Point: E. coli, Test System: WP2, Metabolic Activation: None); “inactive; negative” (End Point: E. coli, Test System: WP2, Metabolic Activation: S-9); “inactive; negative” (End Point: E. coli, Test System: WP2uvrA pKM101, Metabolic Activation: None); “inactive; negative” (End Point: E. coli, Test System: WP2uvrA pKM101, Metabolic Activation: S-9). The mutagenic call (End Point: E. coli, Test System: WP2uvrA, Metabolic Activation: None) is “inactive; negative”; the mutagenic call (End Point: E. coli, Test System: WP2uvrA, Metabolic Activation: S-9) is “inactive; negative”; the mutagenic call (End Point: Gene mutation, Test System: Chinese hamster V79 lung fibroblasts, Metabolic Activation: None) is “inactive; negative”; the mutagenic call (End Point: Gene mutation, Test System: Chinese hamster V79 lung fibroblasts, Metabolic Activation: S-9) was “inactive; negative”; the mutagenic call (End Point: In vitro chromosomal aberrations, Test System: Chinese hamster ovary (CHO-WBL) cells, Metabolic Activation: None) was “inactive; negative”; the mutagenic call (End Point: In vitro chromosomal aberrations, Test System: Chinese hamster ovary (CHO-WBL) cells, Metabolic Activation: S-9) is “inactive; negative”. Also, the mutagenic call (End Point: In vivo chromosomal aberrations, Test System: Bone marrow cells, Species: Mouse, Route: Oral) was “inactive; negative”.
As for `c1ccc2c(c1)c1cccc3ccc4cccc2c4c31`, the mutagenic call (End Point: IN VITRO MICRONUCLEUS, Test System: CHINESE HAMSTER V79 CELLS, Metabolic Activation: S-9) is “active; positive”; the mutagenic call (Test System: AMES SALMONELLA TYPHIMURIUM, Strain/Indicator: TA97, Metabolic Activation: NONE, Method: STANDARD PLATE) was “inactive; negative”; the mutagenic call (Test System: AMES SALMONELLA TYPHIMURIUM, Strain/Indicator: TA97, Metabolic Activation: RAT, LIVER, S-9, PCB, Method: STANDARD PLATE) is “active; positive”; the mutagenic call (Test System: AMES SALMONELLA TYPHIMURIUM, Strain/Indicator: TA98, Metabolic Activation: NONE, Method: STANDARD PLATE) was “inactive; negative”; the mutagenic call (Test System: AMES SALMONELLA TYPHIMURIUM, Strain/Indicator: TA98, Metabolic Activation: RAT, LIVER, S-9, AROCLOR 1254, Method: STANDARD PLATE) was “active; positive”; the mutagenic call (Test System: AMES SALMONELLA TYPHIMURIUM, Strain/Indicator: TA98, Metabolic Activation: RAT, LIVER, S-9, PCB, Method: STANDARD PLATE) was “active; positive”. Further, the mutagenic call is “inactive; negative” (Test System: AMES SALMONELLA TYPHIMURIUM, Strain/Indicator: TA100, Metabolic Activation: MOUSE, LIVER, MICROSOMES, BENZO[E]PYRENE AND TCDD, Method: STANDARD PLATE); “inactive; negative” (Test System: AMES SALMONELLA TYPHIMURIUM, Strain/Indicator: TA100, Metabolic Activation: NONE, Method: STANDARD PLATE); “active; positive” (Test System: AMES SALMONELLA TYPHIMURIUM, Strain/Indicator: TA100, Metabolic Activation: RAT, LIVER, S-9, AROCLOR 1254, Method: STANDARD PLATE); “active; positive” (Test System: AMES SALMONELLA TYPHIMURIUM, Strain/Indicator: TA100, Metabolic Activation: RAT, LIVER, S-9, PCB, Method: STANDARD PLATE); “inactive; negative” (Test System: E. COLI, Strain/Indicator: WP2 UVRA, Metabolic Activation: HAMSTER, LIVER, S-9, AROCLOR 1254, Method: STANDARD PLATE); “inactive; negative” (Test System: E. COLI, Strain/Indicator: WP2 UVRA, Metabolic Activation: HAMSTER, LIVER, S-9, Method: STANDARD PLATE). The mutagenic call is, setting by setting: (Test System: E. COLI, Strain/Indicator: WP2 UVRA, Metabolic Activation: MOUSE, LIVER, S-9, AROCLOR 1254, Method: STANDARD PLATE) “inactive; negative”; (Test System: E. COLI, Strain/Indicator: WP2 UVRA, Metabolic Activation: MOUSE, LIVER, S-9, Method: STANDARD PLATE) “inactive; negative”; (Test System: E. COLI, Strain/Indicator: WP2 UVRA, Metabolic Activation: NONE, Method: STANDARD PLATE) “inactive; negative”; (Test System: E. COLI, Strain/Indicator: WP2 UVRA, Metabolic Activation: RAT, LIVER, S-9, AROCLOR 1254, Method: STANDARD PLATE) “inactive; negative”; (Test System: E. COLI, Strain/Indicator: WP2 UVRA, Metabolic Activation: RAT, LIVER, S-9, Method: STANDARD PLATE) “inactive; negative”; (Test System: MOUSE LYMPHOMA, Strain/Indicator: L5178Y (TK+/TK-), Metabolic Activation: NONE, Method: SUSPENSION/PLATE) “inactive; negative”. Moreover, the mutagenic call (Test System: MOUSE LYMPHOMA, Strain/Indicator: L5178Y (TK+/TK-), Metabolic Activation: RAT, LIVER, S-9, AROCLOR 1254, Method: SUSPENSION/PLATE) is “active; positive”; the mutagenic call (Test System: MOUSE LYMPHOMA, Strain/Indicator: L5178Y (TK+/TK-), Metabolic Activation: RAT, LIVER, S-9, Method: SUSPENSION/PLATE) was “inactive; negative”; the mutagenic call (Test System: UDS HUMAN CELLS, Strain/Indicator: THY INCORP (NON-S-PHASE), Metabolic Activation: RAT, LIVER, S-9, 3-METHYLCHOLANTHRENE, Method: LIQUID SCINTILLATION COUNTING) was “active; positive”.

For the origin of these results see PubChem BioAssay AID1259407 (Chemical Carcinogenesis Research Information System (CCRIS), 2018).
